From publication PMC6297231 (Nature Communications, 2018)
Where two headings read alike, the source gives them in different places.

How the values were obtained:
[1] = test system: EJM; assay: Cell viability assay; assay type: cell-based; settings: Homo sapiens, 24 h; EJM (MM); read-out: AZD5991 24h GI50
Method: (§1) Cells were plated at 3000 cells/well in 384-well white plates in corresponding cell growth media. […] Caspase-3/7 activation was subsequently determined using a Caspase-Glo 3/7 Reagent (Promega) and viability was assayed using the CellTiter-Glo Reagent (Promega) as described in manufacturer’s instructions. Dose–response curves for caspase-3/7 activation and viability were plotted and analyzed (including EC50 and GI50 determination) using GraphPad Prism.

[2] = test system: OCILY1; assay: Cell viability assay; assay type: cell-based; settings: Homo sapiens, OCI-Ly1, 24 h; OCILY1 (NHL); read-out: AZD5991 24h GI50
Method: as §1

[3] = test system: OCIAML2; assay: Cell viability assay; assay type: cell-based; settings: Homo sapiens, OCI-AML2, 24 h; OCIAML2 (AML); read-out: AZD5991 24h GI50
Method: as §1

[4] = test system: G361; assay: Cell viability assay; assay type: cell-based; settings: Homo sapiens, G-361, 24 h; G361 (Skin); read-out: AZD5991 24h GI50
Method: as §1

[5] = test system: JEKO1; assay: Cell viability assay; assay type: cell-based; settings: Homo sapiens, JeKo-1, 24 h; JEKO1 (NHL); read-out: AZD5991 24h GI50
Method: as §1

[6] = test system: Bjab; assay: Cell viability assay; assay type: cell-based; settings: Homo sapiens, 24 h; Bjab (NHL); read-out: AZD5991 24h GI50
Method: as §1

[7] = test system: JJN3; assay: Cell viability assay; assay type: cell-based; settings: Homo sapiens, JJN-3, 24 h; JJN3 (MM); read-out: AZD5991 24h GI50
Method: as §1

[8] = test system: Colo205; assay: Cell viability assay; assay type: cell-based; settings: Homo sapiens, COLO 205, 24 h; Colo205 (GI); read-out: AZD5991 24h GI50
Method: as §1

[9] = test system: Raji; assay: Cell viability assay; assay type: cell-based; settings: Homo sapiens, 24 h; Raji (NHL); read-out: AZD5991 24h GI50
Method: as §1

[10] = test system: HEL92.1.7; assay: Cell viability assay; assay type: cell-based; settings: Homo sapiens, HEL 92.1.7, 24 h; HEL92.1.7 (AML); read-out: AZD5991 24h GI50
Method: as §1

[11] = test system: Eμ-Myc lymphoma cells stably expressing human Bcl-xL; assay: Apoptosis induction in Eμ-Myc lymphoma cells; settings: overexpression of Bcl-xL, 24 h
From the text: The retroviral plasmids to express human Bcl-2 family members in murine Eμ-Myc lymphoma cells are MSCV-hMCL-1-GFP, MSCV-hBCL-2-GFP, MSCV-hBCL-XL-GFP, MSCV-hBFL-1/A1-GFP, and MSCV-hBCL-w-GFP. To produce viruses, constructs of interest were co-transfected into HEK293T cells with the plasmid encoding the packaging viruses (p-CL-AMPHO provided by Phillip Darcy from Peter MacCallum Cancer Center, Melbourne, Australia) using standard calcium phosphate transient transfection technique. The retroviruses were harvested, filtered and used to infect target cells following standard procedures.
Samples were then centrifuged, washed twice with PBS and analyzed by flow cytometry in a BD LSRFortessa. FACSDiva software was used for data collection and FlowJo software for data analysis.

[12] = test system: Calu1; assay: Cell viability assay; assay type: cell-based; settings: Homo sapiens, Calu-1, 24 h; Calu1 (Lung); read-out: AZD5991 24h GI50
Method: as §1

[13] = test system: CMK; assay: Caspase-3/7 activation assay; assay type: cell-based; settings: Homo sapiens, 6 h
Method: as §1

[14] = test system: OCILY19; assay: Cell viability assay; assay type: cell-based; settings: Homo sapiens, OCI-LY19, 24 h; OCILY19 (NHL); read-out: AZD5991 24h GI50
Method: as §1

[15] = test system: KMS34; assay: Cell viability assay; assay type: cell-based; settings: KMS-34, 24 h; KMS34 (MM); read-out: AZD5991 24h GI50
Method: as §1

[16] = test system: DU145; assay: Cell viability assay; assay type: cell-based; settings: Homo sapiens, DU-145, 24 h; DU145 (Urology); read-out: AZD5991 24h GI50
Method: as §1

[17] = test system: OCILY10; assay: Cell viability assay; assay type: cell-based; settings: Homo sapiens, OCI-Ly10, 24 h; OCILY10 (NHL); read-out: AZD5991 24h GI50
Method: as §1

[18] = test system: BT20; assay: Cell viability assay; assay type: cell-based; settings: Homo sapiens, BT-20, 24 h; BT20 (Breast); read-out: AZD5991 24h GI50
Method: as §1

[19] = test system: L363; assay: Cell viability assay; assay type: cell-based; settings: Homo sapiens, L-363, 24 h; L363 (MM); read-out: AZD5991 24h GI50
Method: as §1

[20] = test system: A101D; assay: Cell viability assay; assay type: cell-based; settings: Homo sapiens, 24 h; A101D (Skin); read-out: AZD5991 24h GI50
Method: as §1

[21] = test system: MOLM13; assay: Cell viability assay; assay type: cell-based; settings: Homo sapiens, MOLM-13, 24 h; MOLM13 (AML); read-out: AZD5991 24h GI50
Method: as §1

[22] = test system: FaDu; assay: Cell viability assay; assay type: cell-based; settings: Homo sapiens, 24 h; FaDu (Others); read-out: AZD5991 24h GI50
Method: as §1

[23] = test system: primary MM cells; settings: 48 MM patients, 24 h, Annexin V by flow
[24] = test system: H2126; assay: Cell viability assay; assay type: cell-based; settings: Homo sapiens, NCI-H2126, 24 h; H2126 (Lung); read-out: AZD5991 24h GI50
Method: as §1

[25] = test system: Toledo; assay: Cell viability assay; assay type: cell-based; settings: Homo sapiens, 24 h; Toledo (NHL); read-out: AZD5991 24h GI50
Method: as §1

[26] = test system: HCC827; assay: Cell viability assay; assay type: cell-based; settings: Homo sapiens, 24 h; HCC827 (Lung); read-out: AZD5991 24h GI50
Method: as §1

[27] = test system: MUTZ3; assay: Cell viability assay; assay type: cell-based; settings: 24 h; MUTZ3 (AML); read-out: AZD5991 24h GI50
Method: as §1

[28] = test system: H322; assay: Cell viability assay; assay type: cell-based; settings: NCI-H322, 24 h; H322 (Lung); read-out: AZD5991 24h GI50
Method: as §1

[29] = test system: BT549; assay: Cell viability assay; assay type: cell-based; settings: Homo sapiens, BT-549, 24 h; BT549 (Breast); read-out: AZD5991 24h GI50
Method: as §1

[30] = test system: LP1; assay: Cell viability assay; assay type: cell-based; settings: Homo sapiens, LP-1, 24 h; LP1 (MM); read-out: AZD5991 24h GI50
Method: as §1

[31] = test system: Namalwa; assay: Cell viability assay; assay type: cell-based; settings: 24 h; Namalwa (NHL); read-out: AZD5991 24h GI50
Method: as §1

[32] = test system: H446; assay: Cell viability assay; assay type: cell-based; settings: Homo sapiens, NCI-H446, 24 h; H446 (Lung); read-out: AZD5991 24h GI50
Method: as §1

Cc1c2c(nn1C)CSCc1cc(n(C)n1)CSc1cc(c3ccccc3c1)OCCCc1c(C(=O)O)n(C)c3c-2c(Cl)ccc13 (atropisomer, axis not shown; (Ra)) [(Ra)-7]
GI50 [1]: 105 nM
GI50 [2]: 561 nM
GI50 [3]: 295 nM
GI50 [4]: 404 nM
GI50 [5]: 452 nM
GI50 [6]: 16 nM
GI50 [7]: 255 nM
GI50 [8]: 20500 nM
GI50 [9]: 167 nM
GI50 [10]: 1640 nM
apoptosis-inducing activity [11]: blocked
GI50 [12]: > 30000 nM
EC50 ([13]; read-out: 6h caspase EC50, CMK, single agent): > 333 nM
EC50 ([13]; read-out: AZD5991 6h EC50, CMK (AML), caspase 3/7 activation): > 30000 nM
GI50 [14]: 140 nM
GI50 [15]: 503 nM
GI50 [16]: 26800 nM
GI50 [17]: 119 nM
GI50 [18]: 4630 nM
GI50 [19]: 75 nM
GI50 [20]: 175 nM
GI50 [21]: 42 nM
GI50 [22]: 8870 nM
MM primary samples with EC50 values below 100 nM [23]: 71%
GI50 [24]: 320 nM
GI50 [25]: 113 nM
GI50 [26]: 20100 nM
GI50 [27]: 4 nM
GI50 [28]: 17400 nM
GI50 [29]: 250 nM
GI50 [30]: 258 nM
GI50 [31]: 39 nM
GI50 [32]: 319 nM
